Results reported in patent US12728186B2, “Methods and kits for preparing pathogen-inactivated whole blood” (priority 2018, dated 2026).
Where “and” joins values, the source holds several entries; their conditions need not be identical. Equal values may be shown once.

How the values were obtained:
Format in all cases: physicochemical
[1] = Residual unreacted amustaline by LCMS, Example 5 (2-container kits, transfer at 18, 20 or 22 hr); settings: Units 15-21, 2-container kit, transfer time 22 hr, 22° C.
Protocol: A further study was performed to evaluate additional conditions for the preparation of pathogen-inactivated whole blood using amustaline and GSH in 2-container kits of the present disclosure (e.g., FIG. 3b). Amustaline and GSH were added to the whole blood units at 0.2 mM and 2.0 mM final concentrations, respectively, in the first container. […] Following transfer to the second container the mixtures were further incubated at 22° C., with sampling for analysis at 2 hr intervals as shown in Table 6.
Samples were analyzed by LCMS to determine the level of residual, unreacted amustaline as previously described.

[2] = Residual unreacted amustaline by LCMS, Example 1 (treatment container; samples moved to separate containers); settings: for Residual amustaline levels in pathogen-inactivated whole blood, 21 hr / Residual amustaline levels in pathogen-inactivated whole blood, 24 hr / Residual amustaline levels in pathogen-inactivated whole blood, 27 hr / Residual amustaline levels in pathogen-inactivated whole blood, 30 hr / Residual amustaline levels in pathogen-inactivated whole blood, 33 hr / Residual amustaline levels in pathogen-inactivated whole blood, 36 hr / Residual amustaline levels in pathogen-inactivated whole blood, 42 hr: no transfer, 0.2 mM amustaline, 2.0 mM GSH
Protocol: Pathogen inactivated whole blood was prepared with the pathogen inactivation compound, amustaline, and the quencher glutathione (Henschler et al., 2011, Transfus Med Hemother 38:33-42), in a kit of the present disclosure comprising a treatment container and tubing with a 3-way branch for introducing the amustaline/GSH (e.g., a “filter set”) comprising two in line filters for coupling (e.g., connecting) containers (e.g., syringes) of PIC and quencher, and the third branch coupled to (e.g., connected to) a sample diversion pouch (e.g., FIG. 3b). More specifically, four ABO-matched whole blood units containing anticoagulant were pooled and split into 8 half units (225 mL/half unit), added into each of eight treatment bags by connecting the pooled donor blood bag containing the whole blood to the treatment container by way of the tubing and using a tubing welder. Following transfer of the whole blood into the treatment containers, the pooled donor blood bag was removed by sealing and severing the tubing, and the filter set was sterile coupled using a tubing welder to the same input port of the treatment container via the remaining tubing. Amustaline and GSH were added to final concentrations of 0.2 mM and 2.0 mM, respectively. GSH was added first, followed by addition of amustaline, either within 5 minutes of GSH addition or after at least 15 minutes hold time, as indicated in Table 1. The mixtures were incubated at 22° C. (Units 1-4) or 25° C. (Units 5-8), with samples removed at the indicated times for analysis by liquid chromatography-mass spectrometry (LCMS) to determine the level of residual, unreacted amustaline.
Additionally, 50 mL of the mixture was removed from each of Units 2 and 8 at 24 hr and divided into two 25 mL samples in separate containers to compare storage at 4° C. versus room temperature, and for evaluation of residual amustaline levels at 2, 4, 6 and 8 hours of storage under those conditions (Table 2).

[3] = Residual amustaline, Example 8 (2-container processing before component preparation); settings: Units 2-7
Protocol: Additionally, a study was performed to evaluate plasma and red blood cells prepared from a pathogen-inactivated whole blood composition, either shortly after the whole blood PI treatment process, or after storing the pathogen-inactivated whole blood at 4° C. prior to preparing the plasma and red blood cell components. Donor whole blood units were pooled and split into seven units (e.g., to standardize across units), and subjected to treatment conditions as follows. Unit 1 was the control and treated only with saline, while units 2-7 were treated with amustaline and GSH, at concentrations of about 0.2 mM and 2.0 mM, respectively. Following addition of the amustaline and GSH, or the saline, in the first container (bag), the units were incubated at 22° C. for 22 hours, and then transferred to the second container (bag). Sampling was done at the time of transfer, and also at 24 hours and 26 hours (2 or 4 hours post-transfer, also incubated at 22° C.), for analysis of residual amustaline, hemolysis and/or fibrinogen and Factor VIII levels. […] Additionally, at Days 2, 5 and 7, samples were removed from the stored pathogen-inactivated whole blood, centrifuged to obtain plasma and red blood cells, and similarly analyzed. […]

[4] = Residual amustaline by LCMS, Example 6 further example (direct donor collection into 2-container kit); settings: donor blood collected into 2-container kit with CPDA-1; 22° C. 20 hours, second container 2-4 hours
Protocol: In another example, a 2-container kit comprising a treatment container and a filter set (e.g., described above) for introducing the amustaline/GSH (e.g., FIG. 8c) is used to collect from a donor 450 mL of whole blood into the first container that contains 63 mL of anticoagulant CPDA-1 (e.g., blood:anticoagulant ratio approximately 7:1), through the first inlet port. The collection line is then closed using a medical tubing clamp and the whole blood and anticoagulant solution are mixed. The pathogen inactivation compound amustaline and the quencher GSH are next added to the whole blood in the first container through the second port, to final concentrations of about 0.2 mM and 2.0 mM, respectively. The mixture of whole blood, PIC and quencher are incubated at 22° C. for 20 hours, followed by transfer of the mixture to the second container, clamping the tubing between the first and second containers, and incubating the mixture at 22° C. for a further 2-4 hours to provide a pathogen-inactivated whole blood unit.

[5] = Units 1-2, amustaline added >15 min after GSH, 22° C. in treatment container
[6] = Units 3-4, amustaline added <5 min after GSH, 22° C. in treatment container
[7] = Units 5-6, amustaline added >15 min after GSH, 25° C. in treatment container
[8] = Units 7-8, amustaline added <5 min after GSH, 25° C. in treatment container

O=C(CCNc1c2ccccc2nc2ccccc12)OCCN(CCCl)CCCl [amustaline]
Residual amustaline levels in pathogen-inactivated whole blood, 24 hr ([1]; 24 hr): BLOQ (BLOQ = Below Limit of Quantitation (e.g., <0.75 nM)) | Residual amustaline levels in pathogen-inactivated whole blood, 26 hr ([1]; 26 hr): BLOQ (BLOQ = Below Limit of Quantitation (e.g., <0.75 nM)) | Residual amustaline levels in pathogen-inactivated whole blood, 21 hr [2, 5]: 3.50 nM and 4.09 nM | Residual amustaline levels in pathogen-inactivated whole blood, 21 hr [2, 6]: 3.45 nM and 3.85 nM | Residual amustaline levels in pathogen-inactivated whole blood, 21 hr [2, 7]: 2.91 nM and 3.21 nM | Residual amustaline levels in pathogen-inactivated whole blood, 21 hr [2, 8]: 3.43 nM and 4.15 nM | Residual amustaline levels in pathogen-inactivated whole blood, 24 hr [2, 5]: 2.62 nM and 2.66 nM | Residual amustaline levels in pathogen-inactivated whole blood, 24 hr [2, 6]: 3.04 nM and 3.53 nM | Residual amustaline levels in pathogen-inactivated whole blood, 24 hr [2, 7]: 2.44 nM and 2.58 nM | Residual amustaline levels in pathogen-inactivated whole blood, 24 hr [2, 8]: 2.86 nM and 3.39 nM | Residual amustaline levels in pathogen-inactivated whole blood, 27 hr [2, 5]: 2.27 nM and 3.07 nM | Residual amustaline levels in pathogen-inactivated whole blood, 27 hr [2, 6]: 3.29 nM and 3.7 nM | Residual amustaline levels in pathogen-inactivated whole blood, 27 hr [2, 7]: 2.55 nM and 2.71 nM | Residual amustaline levels in pathogen-inactivated whole blood, 27 hr [2, 8]: 2.74 nM and 3.30 nM | Residual amustaline levels in pathogen-inactivated whole blood, 30 hr [2, 5]: 2.11 nM and 2.95 nM | Residual amustaline levels in pathogen-inactivated whole blood, 30 hr [2, 6]: 2.67 nM and 2.84 nM | Residual amustaline levels in pathogen-inactivated whole blood, 30 hr [2, 7]: 2.04 nM and 2.49 nM | Residual amustaline levels in pathogen-inactivated whole blood, 30 hr [2, 8]: 2.34 nM and 2.59 nM | Residual amustaline levels in pathogen-inactivated whole blood, 33 hr [2, 5]: 2.61 nM and 2.29 nM | Residual amustaline levels in pathogen-inactivated whole blood, 33 hr [2, 6]: 2.16 nM and 2.22 nM | Residual amustaline levels in pathogen-inactivated whole blood, 33 hr [2, 7]: 1.76 nM and 1.47 nM | Residual amustaline levels in pathogen-inactivated whole blood, 33 hr [2, 8]: 1.64 nM and 2.83 nM | Residual amustaline levels in pathogen-inactivated whole blood, 36 hr [2, 5]: 1.62 nM and 1.38 nM | Residual amustaline levels in pathogen-inactivated whole blood, 36 hr [2, 6]: 1.73 nM and 1.41 nM | Residual amustaline levels in pathogen-inactivated whole blood, 36 hr [2, 7]: 1.89 nM and 1.87 nM | Residual amustaline levels in pathogen-inactivated whole blood, 36 hr [2, 8]: 2.28 nM and 1.97 nM | Residual amustaline levels in pathogen-inactivated whole blood, 42 hr [2, 5]: 1.30 nM and 1.35 nM | Residual amustaline levels in pathogen-inactivated whole blood, 42 hr [2, 6]: 1.66 nM and 1.57 nM | Residual amustaline levels in pathogen-inactivated whole blood, 42 hr [2, 7]: 1.62 nM and 1.22 nM | Residual amustaline levels in pathogen-inactivated whole blood, 2 hr ([2]; Units 2 and 8, 25 mL sample removed at 24 hr into separate container, stored at RT, 2 hr of storage): BLOQ (BLOQ = Below Limit of Quantitation (e.g., < 0.75 nM)) | Residual amustaline levels in pathogen-inactivated whole blood, 4 hr ([2]; Units 2 and 8, 25 mL sample removed at 24 hr into separate container, stored at RT, 4 hr of storage): BLOQ (BLOQ = Below Limit of Quantitation (e.g., < 0.75 nM)) | Residual amustaline levels in pathogen-inactivated whole blood, 6 hr ([2]; Units 2 and 8, 25 mL sample removed at 24 hr into separate container, stored at RT, 6 hr of storage): BLOQ (BLOQ = Below Limit of Quantitation (e.g., < 0.75 nM)) | residual amustaline after transfer to a different container and storage at room temperature ([2]; treatment mixtures from Units 2 and 8, transfer to a different container, further storage at room temperature): below the limit of quantitation | Residual amustaline levels in pathogen-inactivated whole blood, 22 hr ([3]; 22 hr (time of transfer), first container 22° C. for 22 hours, then second container): 1.46 nM and 1.39 nM and 1.35 nM and 1.96 nM and 1.84 nM and 1.55 nM | Residual amustaline levels in pathogen-inactivated whole blood, 26 hr ([3]; 26 hr (4 hours post-transfer, 22° C.), second container from 22 hr): BLOQ (BLOQ = Below Limit of Quantitation (e.g., < 0.75 nM)) | Residual amustaline levels in the pathogen-inactivated whole blood preparation [4]: below 1 nm
